From US7291641B2, “Derivatives of heterocycles with 5 members, their preparation and their use as medicaments” (Societe de Conseils de Recherches et d'Applications …, priority 1999, dated 2007)

Row | Compound | melting point [°C]
1 | c1ccc(-c2ccc(-c3c[nH]c(CCNC4CCCCC4)n3)cc2)cc1 [Example 249, N-[2-(4-[1,1′-biphenyl]4-yl-1H-imidazol-2-yl)ethyl]-cyclohexanamine] | 207 to 210
2 | CCCCOC(=O)NCCc1nc(-c2ccc(F)cc2)c[nH]1 [Example 251, butyl 2-[4-(4-fluorophenyl)-1H-imidazol-2-yl]ethylcarbamate] | 87
3 | Brc1cccc(-c2c[nH]c(CNC3CCCCC3)n2)c1 [Example 254, N-{[4-(3-bromophenyl)-1H-imidazol-2-yl]methyl}cyclohexanamine] | 202 to 204
4 | CCCCCCOC(=O)NCCc1nc(-c2ccc(-c3ccccc3)cc2)c[nH]1 [Example 255, hexyl 2-(4-[1,1′-biphenyl]-4-yl-1H-imidazol-2-yl)ethylcarbamate] | 116.5 to 116.8
5 | CC(C)N[C@H](c1nc(-c2ccc(F)cc2)c[nH]1)C1CCCCC1 [Example 261, N-{(S)-cyclohexyl[4-(4-fluorophenyl)-1H-imidazol-2-yl]methyl}-2-propanamine] | 210 to 212
6 | Fc1ccc(-c2c[nH]c([C@@H](NC3CCC3)C3CCCCC3)n2)cc1F [Example 262, N-{(S)-cyclohexyl[4-(3,4-difluorophenyl)-1H-imidazol-2-yl]methyl}cyclobutanamine] | 200 to 202
7 | CCCCOC(=O)NCCc1nc(-c2ccc(C3CCCCC3)cc2)c[nH]1 [Example 268, butyl 2-[4-(4-cyclohexylphenyl)-1H-imidazol-2-yl]ethylcarbamate] | 138.4
8 | O=C(NCCc1nc(-c2ccc(-c3ccccc3)cc2)c[nH]1)OC1CCCCC1 [Example 269, 4-[2-(2-{[(cyclohexyloxy)carbonyl]amino}ethyl)-1H-imidazol-4-yl]-1,1′-biphenyl] | 150
9 | FC(F)(F)Oc1ccc(-c2c[nH]c([C@@H](NC3CCC3)C3CCCCC3)n2)cc1 [Example 270, N-((S)-cyclohexyl{4-[4-(trifluoromethoxy)phenyl]-1H-imidazol-2-yl}methyl)-cyclobutanamine] | 136 to 140
10 | O=C(NCCc1nc(-c2ccc(-c3ccccc3)cc2)c[nH]1)OC1CCCC1 [Example 271, 4-[2-(2-{[(cyclopentyloxy)carbonyl]amino}ethyl)-1H-imidazol-4-yl]-1,1′-biphenyl] | 140.5
11 | CC(C)[C@@H](NC1CCCCC1)c1nc(-c2ccc(F)cc2)c[nH]1 [Example 276, N-{(1R)-1-[4-(4-fluorophenyl)-1H-imidazol-2-yl]-2-methylpropyl}-cyclohexanamine] | 224 to 226
12 | O=C(NCCc1nc(-c2ccc(-c3ccccc3)cc2)c[nH]1)OCC1CCCCC1 [Example 280, cyclohexylmethyl 2-(4-[1,1′-biphenyl]-4-yl-1H-imidazol-2-yl)ethylcarbamate] | 132 to 134
13 | CCCCOC(=O)NCCc1nc(-c2ccc(-c3ccc(Br)cc3)cc2)c[nH]1 [Example 281, 4-bromo-4′-(2-{2-[(butoxycarbonyl)amino]ethyl}-1H-imidazol-4-yl)-1,1′-biphenyl] | 166
14 | Fc1ccc(-c2c[nH]c([C@@H](NC3CCCCC3)C3CCCCC3)n2)cc1 [Example 283, N-{(S)-cyclohexyl[4-(4-fluorophenyl)-1H-imidazol-2-yl]methyl}-cyclohexanamine] | 260 to 262
15 | FC(F)(F)c1cc(-c2c[nH]c([C@@H](NC3CCCCC3)C3CCCCC3)n2)cc(C(F)(F)F)c1 [Example 284, N-[(S)-{4-[3,5-bis(trifluoromethyl)phenyl]-1H-imidazol-2-yl}(cyclohexyl)methyl]cyclohexanamine] | 180 to 182
16 | O=C(NCCc1nc(-c2ccc(-c3ccccc3)cc2)c[nH]1)OCC1CCC1 [Example 285, cyclobutylmethyl 2-(4-[1,1′-biphenyl]-4-yl-1H-imidazol-2-yl)ethylcarbamate] | 144 to 145
17 | O=C(NCCc1nc(-c2ccc(F)cc2)c[nH]1)OCC1CCC1 [Example 286, cyclobutylmethyl 2-[4-(4-fluorophenyl)-1H-imidazol-2-yl]ethylcarbamate] | 149 to 150
18 | Fc1ccc(-c2c[nH]c([C@@H](NC3CCCCC3)C3CCCCC3)n2)cc1F [Example 287, N-{(S)-cyclohexyl[4-(3,4-difluorophenyl)-1H-imidazol-2-yl]methyl}cyclohexanamine] | 182.3
19 | COCCOC(=O)NCCc1nc(-c2ccc(-c3ccccc3)cc2)c[nH]1 [Example 288, 4-[2-(2-{[(2-methoxyethoxy)carbonyl]amino}ethyl)-1H-imidazol-4-yl]-1,1′-biphenyl] | 123.3
20 | Brc1cccc(-c2c[nH]c([C@@H](NCC3CCCCC3)C3CCCCC3)n2)c1 [Example 289, (S)-1-[4-(3-bromophenyl)-1H-imidazol-2-yl]-1-cyclohexyl-N-(cyclohexylmethyl)methanamine] | 134.3
21 | Fc1ccc(-c2c[nH]c([C@@H](NCC3CCCCC3)C3CCCCC3)n2)cc1 [Example 293, (S)-1-cyclohexyl-N-(cyclohexylmethyl)-1-[4-(4-fluorophenyl)-1H-imidazol-2-yl]methanamine] | 184.8

Row | Compound | melting point [°C]
22 | CCCCOC(=O)NCCc1nc(-c2ccc(C(C)(C)C)cc2)c[nH]1 [Example 294, butyl 2-[4-(4-tert-butylphenyl)-1H-imidazol-2-yl]ethylcarbamate] | 106 to 108
23 | CCCCOC(=O)NCCc1nc(-c2ccc(Br)cc2)c[nH]1 [Example 299, butyl 2-[4-(4-bromophenyl)-1H-imidazol-2-yl]ethylcarbamate] | 99 to 100
24 | CCCCOC(=O)NCCc1nc(-c2ccc(C(F)(F)F)cc2)c[nH]1 [Example 300, butyl 2-{4-[4-(trifluoromethyl)phenyl]-1H-imidazol-2-yl}ethylcarbamate] | 104 to 105
25 | Fc1ccc(-c2c[nH]c([C@@H](NC3CCCCCC3)C3CCCCC3)n2)cc1 [Example 301, N-{(S)-cyclohexyl[4-(4-fluorophenyl)-1H-imidazol-2-yl]methyl}cycloheptanamine] | 140 to 142
26 | CC(C)(C)c1ccc(-c2c[nH]c(CCNC(=O)OCC3CCCCC3)n2)cc1 [Example 302, cyclohexylmethyl 2-[4-(4-tert-butylphenyl)-1H-imidazol-2-yl]ethylcarbamate] | 104 to 106
27 | O=C(NCCc1nc(-c2ccc(-c3ccc(Br)cc3)cc2)c[nH]1)OCC1CCCCC1 [Example 303, cyclohexylmethyl 2-[4-(4′-bromo-1.1′-biphenyl-4-yl)-1H-imidazol-2-yl]ethylcarbamate] | 130 to 132
28 | FC(F)(F)c1cccc(-c2c[nH]c([C@@H](NC3CCCCC3)C3CCCCC3)n2)c1 [Example 304, N-((S)-cyclohexyl{4-[3-(trifluoromethyl)phenyl]-1H-imidazol-2-yl}methyl)cyclohexanamine] | 186 to 188
29 | FC(F)(F)c1cccc(-c2c[nH]c([C@@H](NCC3CCCCC3)C3CCCCC3)n2)c1 [Example 305, (S)-1-cyclohexyl-N-(cyclohexylmethyl)-1-{4-[3-(trifluoromethyl)-phenyl]-1H-imidazol-2-yl}methanamine] | 143.9
30 | Fc1ccc(-c2c[nH]c([C@@H](CC3CCCCC3)NC3CCCCC3)n2)cc1 [Example 309, N-{(1R)-2-cyclohexyl-1-[4-(4-fluorophenyl)-1H-imidazol-2-yl]ethyl}cyclohexanamine] | 217 to 218
31 | CCCCOC(=O)NCCc1nc(-c2ccc(N3CCCC3)cc2)c[nH]1 [Example 313, butyl 2-[4-(4-pyrrolidin-1-ylphenyl)-1H-imidazol-2-yl]ethylcarbamate] | 125
32 | O=C(NCCc1nc(-c2ccc(N3CCCC3)cc2)c[nH]1)OCC1CCCCC1 [Example 326, cyclohexylmethyl 2-[4-(4-pyrrolidin-1-ylphenyl)-1H-imidazol-2-yl]ethylcarbamate] | 128.5
33 | CCCCOC(=O)NCCc1nc(-c2cc(C(C)(C)C)c(O)c(C(C)(C)C)c2)c[nH]1 [Example 330, butyl 2-[4-(3,5-ditert-butyl-4-hydroxyphenyl)-1H-imidazol-2-yl]ethylcarbamate] | 180.9
34 | CC(C)COC(=O)NCCc1nc(-c2ccc(-c3ccc(Br)cc3)cc2)c[nH]1 [Example 338, isobutyl 2-[4-(4′-bromo-1,1′-biphenyl-4-yl)-1H-imidazol-2-yl]ethylcarbamate] | 158.7
35 | CC(C)COC(=O)NCCc1nc(-c2ccc(C(C)(C)C)cc2)c[nH]1 [Example 339, isobutyl 2-[4-(4-tert-butylphenyl)-1H-imidazol-2-yl]ethylcarbamate] | 110.6
36 | CC(C)(C)c1ccc(-c2c[nH]c(CCNC(=O)OCC3CCC3)n2)cc1 [Example 340, cyclobutylmethyl 2-[4-(4-tert-butylphenyl)-1H-imidazol-2-yl]ethylcarbamate] | 103
37 | CC(C)(C)c1ccc(-c2c[nH]c(CCNC(=O)OC3CCCCC3)n2)cc1 [Example 342, cyclohexyl 2-[4-(4-tert-butylphenyl)-1H-imidazol-2-yl]ethylcarbamate] | 127 to 130
38 | O=C(NCCc1nc(-c2ccc(-c3ccc(Br)cc3)cc2)c[nH]1)OCCCC(F)(F)F [Example 344, 4,4,4-trifluorobutyl 2-[4-(4′-bromo-1,1′-biphenyl-4-yl)-1H-imidazol-2-yl]ethylcarbamate] | 176.5
39 | O=C(NCCc1nc(-c2ccc(-c3ccccc3)cc2)c[nH]1)OCCCC(F)(F)F [Example 345, 4,4,4-trifluorobutyl 2-[4-(1,1′-biphenyl-4-yl)-1H-imidazol-2-yl]ethylcarbamate] | 157.3
40 | CC(C)CCCOC(=O)NCCc1nc(-c2ccc(-c3ccccc3)cc2)c[nH]1 [Example 378, 4-methylpentyl 2-[4-(1,1′-biphenyl-4-yl)-1H-imidazol-2-yl]ethylcarbamate] | 128.3
41 | CC(C)(C)CCOC(=O)NCCc1nc(-c2ccc(N3CCCC3)cc2)c[nH]1 [Example 379, 3,3-dimethylbutyl 2-[4-(4-pyrrolidin-1-ylphenyl)-1H-imidazol-2-yl]ethylcarbamate] | 119.2
